System: MDCK
Experiment: MDCK permeability
Format: in vitro ADME
Details: estimate of intestinal absorption
Description: Physicochemical and ADME properties were determined using the following assays: microsomal stability intrinsic clearance (Clint) in mouse liver microsomal solution, MDCK permeability (Papp), protein binding (fu) in mouse plasma, and kinetic solubility in pH 7.4 phosphate buffer (Table 7).

O=S(=O)(Nc1ccc(Br)cc1F)c1cccs1 [Compound 8]
Papp, MDCK permeability: 95.0 ×10−^6 cm/s
